{"source": "ChEMBL document CHEMBL6078677", "about": "“Discovery and optimization of tetrahydroacridine derivatives as a novel class of antibiotics against multidrug-resistant Gram-positive pathogens by targeting type I signal peptidase and disrupting bacterial membrane” (Eur J Med Chem, 2025)", "key": {"[1]": {"test": "Hemolytic activity in Kunming mouse erythrocytes assessed as hemolysis at 4 times of MIC measured after 1 hrs by absorbance based assay relative to control", "type": "toxicity, cell-based, Erythrocyte", "settings": "read-out: Activity"}, "Staphylococcus aureus [2]": {"test_system": "Staphylococcus aureus", "test": "Drug resistance, ratio of MIC for Staphylococcus aureus ATCC 29213 measured after 28 days to MIC for Staphylococcus aureus ATCC 29213 measured after 20 hrs", "type": "functional"}, "Cell membrane [3]": {"test_system": "Cell membrane", "test": "Disruption of cell membrane integrity in Staphylococcus aureus ATCC 29213 assessed as increase in red fluorescence intensity incubated for 4 hrs by SYTO-9/PI staining based LIVE/DEAD Baclight bacterial viability assay", "type": "subcellular"}, "[4]": {"test": "Cytotoxicity against human HEp-2 cells assessed as reduction in cell viability incubated for 48 hrs by CCK8 assay", "type": "toxicity, cell-based"}, "Enterococcus faecium [5]": {"test_system": "Enterococcus faecium", "test": "Antimicrobial activity against Enterococcus faecium HFY01 assessed as inhibition of visible growth of bacteria incubated for 20 hrs by broth microdilution method", "type": "functional"}, "Staphylococcus aureus [6]": {"test_system": "Staphylococcus aureus", "test": "microbe, parasite or virus in culture", "type": "functional", "settings": "M92-1, time 20 hrs", "description": "Antimicrobial activity against Staphylococcus aureus M92-1 harboring erythromycin resistance rRNA methylase B, tetracycline efflux protein L and oxazolidinone-phenicol transferable resistance gene assessed as inhibition of visible growth of bacteria incubated for 20 hrs by broth microdilution method"}, "Salmonella enteritidis": {"test_system": "Salmonella enteritidis", "test": "Antimicrobial activity against Salmonella enteritis S1 assessed as inhibition of visible growth of bacteria incubated for 20 hrs by broth microdilution method", "type": "functional, Salmonella enterica subsp. enterica serovar Enteritidis", "settings": "Salmonella enterica"}, "[7]": {"test": "Acute toxicity in ICR mouse model assessed as change in kidney pathology at 25 to 100 mg/kg, IG administered for 7 days by H and E staining based analysis", "type": "organism-based", "settings": "in vivo, po, 168 h, dose 25-100 mg/kg, time 7 day"}, "Streptococcus agalactiae": {"test_system": "Streptococcus agalactiae", "test": "Antimicrobial activity against Streptococcus agalactiae DL03 harboring erythromycin-resistance rRNA methylase B assessed as inhibition of visible growth of bacteria incubated for 20 hrs by broth microdilution method", "type": "functional"}, "[8]": {"test": "Acute toxicity in ICR mouse model assessed as change in spleen pathology at 25 to 100 mg/kg, IG administered for 7 days by H and E staining based analysis", "type": "organism-based", "settings": "in vivo, po, 168 h, dose 25-100 mg/kg, time 7 day"}, "[9]": {"test": "Hemolytic activity in Kunming mouse erythrocytes assessed as hemolysis at 2 times of MIC measured after 1 hrs by absorbance based assay relative to control", "type": "toxicity, cell-based, Erythrocyte", "settings": "read-out: Activity"}, "[10]": {"test": "Metabolic stability in mouse liver microsomes assessed as intrinsic clearance at 100 uM preincubated for 5 mins followed by NADPH addition and measured upto 60 mins by LC-MS/MS analysis", "type": "ADME, Microsome", "settings": "time < 65 min, read-out: CLH"}, "[11]": {"test": "Metabolic stability in human liver microsomes assessed as hepatic extraction ratio at 100 uM preincubated for 5 mins followed by NADPH addition and measured upto 60 mins by LC-MS/MS analysis", "type": "ADME, Microsome", "settings": "time < 65 min, read-out: ERH"}, "[12]": {"test": "Metabolic stability in mouse liver microsomes assessed as hepatic extraction ratio at 100 uM preincubated for 5 mins followed by NADPH addition and measured upto 60 mins by LC-MS/MS analysis", "type": "ADME, Microsome", "settings": "time < 65 min, read-out: ERH"}, "[13]": {"test": "Hemolytic activity in Kunming mouse erythrocytes assessed as hemolysis at 1 time of MIC measured after 1 hrs by absorbance based assay relative to control", "type": "toxicity, cell-based, Erythrocyte", "settings": "read-out: Activity"}, "[14]": {"test": "Cytotoxicity against human Caco-2 cells assessed as cell viability at 4 times of MIC incubated for 48 hrs by CCK8 assay (reference value: 99.54 %)", "type": "toxicity, cell-based", "settings": "read-out: Activity"}, "[15]": {"test": "Hemolytic activity in Kunming mouse erythrocytes measured after 1 hrs by absorbance based assay", "type": "toxicity, cell-based, Erythrocyte"}, "Escherichia coli": {"test_system": "Escherichia coli", "test": "Antimicrobial activity against Escherichia coli ATCC 25922 assessed as inhibition of visible growth of bacteria incubated for 20 hrs by broth microdilution method", "type": "functional"}, "Signal peptidase I": {"target": "Signal peptidase I (Escherichia coli K-12, UniProt P00803)", "sequence (P00803 whole entry, the tested form may be a part)": "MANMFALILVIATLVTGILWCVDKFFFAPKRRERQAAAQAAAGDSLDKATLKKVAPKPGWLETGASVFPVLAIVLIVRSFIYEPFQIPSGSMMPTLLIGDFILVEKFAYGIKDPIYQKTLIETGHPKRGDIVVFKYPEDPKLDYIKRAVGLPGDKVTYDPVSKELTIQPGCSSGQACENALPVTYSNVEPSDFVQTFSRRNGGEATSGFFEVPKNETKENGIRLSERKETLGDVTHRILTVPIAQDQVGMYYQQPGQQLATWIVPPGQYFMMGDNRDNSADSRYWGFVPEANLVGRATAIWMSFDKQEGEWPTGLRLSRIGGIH", "test": "Binding affinity to recombinant 6His-tagged Escherichia coli LepB (77 to 324 residues) extracted from Escherichia coli BL21 (DE3) cells assessed as dissociation constant by MST analysis"}, "[16]": {"test": "Cytotoxicity against human Caco-2 cells assessed as cell viability at 8 times of MIC incubated for 48 hrs by CCK8 assay (reference value: 99.54 %)", "type": "toxicity, cell-based", "settings": "read-out: Activity"}, "Staphylococcus aureus [17]": {"test_system": "Staphylococcus aureus", "test": "microbe, parasite or virus in culture", "type": "functional", "settings": "M147-2, time 20 hrs", "description": "Antimicrobial activity against Staphylococcus aureus M147-2 harboring erythromycin resistance rRNA methylase B, tetracycline efflux protein L and chloramphenicol-florfenicol resistance methylase assessed as inhibition of visible growth of bacteria incubated for 20 hrs by broth microdilution method"}, "Staphylococcus aureus [18]": {"test_system": "Staphylococcus aureus", "test": "Antimicrobial activity against Staphylococcus aureus ATCC 29213 assessed as inhibition of visible growth of bacteria incubated for 20 hrs by broth microdilution method", "type": "functional"}, "[19]": {"test": "Hemolytic activity in Kunming mouse erythrocytes assessed as hemolysis at 8 times of MIC measured after 1 hrs by absorbance based assay relative to control", "type": "toxicity, cell-based, Erythrocyte", "settings": "read-out: Activity"}, "[20]": {"test": "Cytotoxicity against human Caco-2 cells assessed as cell viability at 16 times of MIC incubated for 48 hrs by CCK8 assay (reference value: 99.54 %)", "type": "toxicity, cell-based", "settings": "read-out: Activity"}, "Staphylococcus aureus [21]": {"test_system": "Staphylococcus aureus", "test": "(§1) Antibacterial activity against methicillin-resistant Staphylococcus aureus YZSA-24 infected in cyclophosphamide-induced neutrophil depleted female ICR mouse model of skin infection assessed as log reduction in bacterial load at 1 %, TOP preadministered with cyclophosphamide for 5 days followed by bacterial administration and measured after 25 hrs of compound administration relative to vehicle group", "type": "functional"}, "[22]": {"test": "Metabolic stability in mouse liver microsomes assessed as half-life at 100 uM preincubated for 5 mins followed by NADPH addition and measured upto 60 mins by LC-MS/MS analysis", "type": "ADME, Microsome", "settings": "time < 65 min"}, "[23]": {"test": "Acute toxicity in ICR mouse model assessed as change in heart pathology at 25 to 100 mg/kg, IG administered for 7 days by H and E staining based analysis", "type": "organism-based", "settings": "in vivo, po, 168 h, dose 25-100 mg/kg, time 7 day"}, "Cell membrane [24]": {"test_system": "Cell membrane", "test": "Disruption of cell membrane integrity in Staphylococcus aureus ATCC 29213 assessed as appearance of shriveled surface at 0.5 to 2 times of MIC by scanning electron microscopic analysis", "type": "subcellular"}, "Streptococcus suis": {"test_system": "Streptococcus suis", "test": "Antimicrobial activity against Streptococcus suis P1/7 assessed as inhibition of visible growth of bacteria incubated for 20 hrs by broth microdilution method", "type": "functional"}, "Staphylococcus aureus [25]": {"test_system": "Staphylococcus aureus", "test": "as §1, with “2.5” for “1”, “[…]” for “vehicle”", "type": "functional"}, "Enterococcus faecium [26]": {"test_system": "Enterococcus faecium", "test": "Antimicrobial activity against Enterococcus faecium MC38 harboring erythromycin resistance rRNA methylase B and oxazolidinone-phenicol transferable resistance gene assessed as inhibition of visible growth of bacteria incubated for 20 hrs by broth microdilution method", "type": "functional"}, "[27]": {"test": "Cytotoxicity against human HEp-2 cells assessed as cell viability at 16 times of MIC incubated for 48 hrs by CCK8 assay (reference value: 100 %)", "type": "toxicity, cell-based", "settings": "read-out: Activity"}, "[28]": {"test": "Cytotoxicity against human HEp-2 cells assessed as cell viability at 8 times of MIC incubated for 48 hrs by CCK8 assay (reference value: 100 %)", "type": "toxicity, cell-based", "settings": "read-out: Activity"}, "[29]": {"test": "Acute toxicity in ICR mouse model assessed as change in body weight at 25 to 100 mg/kg, IG administered for 7 days", "type": "organism-based", "settings": "in vivo, po, 168 h, dose 25-100 mg/kg, time 7 day"}, "Pseudomonas aeruginosa": {"test_system": "Pseudomonas aeruginosa", "test": "Antimicrobial activity against Pseudomonas aeruginosa PA01 assessed as inhibition of visible growth of bacteria incubated for 20 hrs by broth microdilution method", "type": "functional"}, "[30]": {"test": "Metabolic stability in rat liver microsomes assessed as intrinsic clearance at 100 uM preincubated for 5 mins followed by NADPH addition and measured upto 60 mins by LC-MS/MS analysis", "type": "ADME, Microsome", "settings": "time < 65 min, read-out: CLH"}, "[31]": {"test": "Acute toxicity in ICR mouse model assessed as change in lung pathology at 25 to 100 mg/kg, IG administered for 7 days by H and E staining based analysis", "type": "organism-based", "settings": "in vivo, po, 168 h, dose 25-100 mg/kg, time 7 day"}, "Enterococcus faecalis": {"test_system": "Enterococcus faecalis", "test": "microbe, parasite or virus in culture", "type": "functional", "settings": "SF23-1, time 20 hrs", "description": "Antimicrobial activity against Enterococcus faecalis SF23-1 harboring erythromycin-resistance rRNA methylase B, tetracycline efflux protein L and chloramphenicol-florfenicol resistance methylase assessed as inhibition of visible growth of bacteria incubated for 20 hrs by broth microdilution method"}}, "note": "Activity calls are given as the source filed them. The rule behind the calls is not given here.", "data": [{"smiles": "CC1C/C(=C\\c2ccc(-c3ccc(Cl)c(C(F)(F)F)c3)s2)c2nc3ccccc3c(C(=O)O)c2C1", "note": "(racemic)", "values": [{"measurement": "hemolysis at 1 h, 4 times of MIC", "setting": "[1]", "result": 0.65, "unit": "%"}, {"measurement": "Ratio", "setting": "Staphylococcus aureus [2]", "result": 2}, {"measurement": "Activity", "setting": "Cell membrane [3]", "result": "Dose-dependent-effect"}, {"measurement": "CC50 at 48 h", "setting": "[4]", "result": 14.7, "unit": "µg/mL"}, {"measurement": "MIC", "setting": "Enterococcus faecium [5]", "result": 2, "unit": "µg/mL"}, {"measurement": "MIC", "setting": "Staphylococcus aureus [6]", "result": 1, "unit": "µg/mL"}, {"measurement": "MIC", "setting": "Salmonella enteritidis", "result": 128, "unit": "µg/mL"}, {"measurement": "Activity", "setting": "[7]", "result": "Non-toxic"}, {"measurement": "MIC", "setting": "Streptococcus agalactiae", "result": 32, "unit": "µg/mL"}, {"measurement": "Activity", "setting": "[8]", "result": "Non-toxic"}, {"measurement": "hemolysis at 1 h, 2 times of MIC", "setting": "[9]", "result": 0, "unit": "%"}, {"measurement": "microsomal CLint at 100 µM", "setting": "[10]", "result": "< 7.5", "unit": "µL/min/mg"}, {"measurement": "hepatic extraction ratio at 1 h, 100 µM", "setting": "[11]", "result": "< 0.27"}, {"measurement": "hepatic extraction ratio at 1 h, 100 µM", "setting": "[12]", "result": "< 0.26"}, {"measurement": "hemolysis at 1 h, 1 time of MIC", "setting": "[13]", "result": 0, "unit": "%"}, {"measurement": "viability at 48 h, 4 times of MIC", "setting": "[14]", "result": 92.9, "unit": "%"}, {"measurement": "HC50 at 1 h", "setting": "[15]", "result": 13.3, "unit": "µg/mL"}, {"measurement": "MIC", "setting": "Escherichia coli", "result": "> 128", "unit": "µg/mL"}, {"measurement": "Kd", "setting": "Signal peptidase I", "result": 13.6, "unit": "µM"}, {"measurement": "viability at 48 h, 8 times of MIC", "setting": "[16]", "result": 72.8, "unit": "%"}, {"measurement": "MIC", "setting": "Staphylococcus aureus [17]", "result": 1, "unit": "µg/mL"}, {"measurement": "MIC", "setting": "Staphylococcus aureus [18]", "result": 1, "unit": "µg/mL"}, {"measurement": "hemolysis at 1 h, 8 times of MIC", "setting": "[19]", "result": 5.4, "unit": "%"}, {"measurement": "viability at 48 h, 16 times of MIC", "setting": "[20]", "result": 61.7, "unit": "%"}, {"measurement": "Activity", "setting": "Staphylococcus aureus [21]", "result": 1.27, "unit": "log10CFU/ml"}, {"measurement": "half-life at 100 µM", "setting": "[22]", "result": "> 3.08", "unit": "h"}, {"measurement": "Activity", "setting": "[23]", "result": "Non-toxic"}, {"measurement": "Activity", "setting": "Cell membrane [24]", "result": "Active"}, {"measurement": "MIC", "setting": "Streptococcus suis", "result": 16, "unit": "µg/mL"}, {"measurement": "Activity", "setting": "Staphylococcus aureus [25]", "result": 2.3, "unit": "log10CFU/ml"}, {"measurement": "MIC", "setting": "Enterococcus faecium [26]", "result": 2, "unit": "µg/mL"}, {"measurement": "viability at 48 h, 16 times of MIC", "setting": "[27]", "result": 44.5, "unit": "%"}, {"measurement": "viability at 48 h, 8 times of MIC", "setting": "[28]", "result": 82.5, "unit": "%"}, {"measurement": "Activity", "setting": "[29]", "result": "Non-toxic"}, {"measurement": "MIC", "setting": "Pseudomonas aeruginosa", "result": "> 128", "unit": "µg/mL"}, {"measurement": "microsomal CLint at 100 µM", "setting": "[30]", "result": "< 7.5", "unit": "µL/min/mg"}, {"measurement": "Activity", "setting": "[31]", "result": "Non-toxic"}, {"measurement": "MIC", "setting": "Enterococcus faecalis", "result": 1, "unit": "µg/mL"}]}]}
